What was measured:
[1] = tested on: Tyrosine-protein kinase ABL1 (Homo sapiens), P00519 [H396P]; settings: Compound concentration 100.0 nM
[2] = molecular target: Activin receptor type-1-like (Homo sapiens) (UniProt P37023); settings: Compound concentration 100.0 nM
[3] = molecular target: Bone morphogenetic protein receptor type-1A (Homo sapiens) (UniProt P36894); settings: Compound concentration 100.0 nM
[4] = molecular target: Calcium/calmodulin-dependent protein kinase type 1 (Homo sapiens) (UniProt Q14012); settings: Compound concentration 100.0 nM
[5] = molecular target: Dual specificity protein kinase CLK1 (Homo sapiens) (UniProt P49759); settings: Compound concentration 100.0 nM
[6] = molecular target: Tyrosine-protein kinase CSK (Homo sapiens) (UniProt P41240); settings: Compound concentration 100.0 nM
[7] = molecular target: Casein kinase I isoform alpha-like (Homo sapiens) (UniProt Q8N752); settings: Compound concentration 100.0 nM
[8] = molecular target: Casein kinase I isoform gamma-1 (Homo sapiens) (UniProt Q9HCP0); settings: Compound concentration 100.0 nM
[9] = molecular target: Myotonin-protein kinase (Homo sapiens) (UniProt Q09013); settings: Compound concentration 100.0 nM
[10] = molecular target: Dual specificity tyrosine-phosphorylation-regulated kinase 2 (Homo sapiens) (UniProt Q92630); settings: Compound concentration 100.0 nM
[11] = molecular target: Ephrin type-A receptor 1 (Homo sapiens) (UniProt P21709); settings: Compound concentration 100.0 nM
[12] = molecular target: Ephrin type-B receptor 6 (Homo sapiens) (UniProt O15197); settings: Compound concentration 100.0 nM
[13] = molecular target: Fibroblast growth factor receptor 3 (Homo sapiens) (UniProt P22607); settings: Compound concentration 100.0 nM
Fibroblast growth factor receptor 3 (Homo sapiens), sequence (P22607 23-806 limits assumed): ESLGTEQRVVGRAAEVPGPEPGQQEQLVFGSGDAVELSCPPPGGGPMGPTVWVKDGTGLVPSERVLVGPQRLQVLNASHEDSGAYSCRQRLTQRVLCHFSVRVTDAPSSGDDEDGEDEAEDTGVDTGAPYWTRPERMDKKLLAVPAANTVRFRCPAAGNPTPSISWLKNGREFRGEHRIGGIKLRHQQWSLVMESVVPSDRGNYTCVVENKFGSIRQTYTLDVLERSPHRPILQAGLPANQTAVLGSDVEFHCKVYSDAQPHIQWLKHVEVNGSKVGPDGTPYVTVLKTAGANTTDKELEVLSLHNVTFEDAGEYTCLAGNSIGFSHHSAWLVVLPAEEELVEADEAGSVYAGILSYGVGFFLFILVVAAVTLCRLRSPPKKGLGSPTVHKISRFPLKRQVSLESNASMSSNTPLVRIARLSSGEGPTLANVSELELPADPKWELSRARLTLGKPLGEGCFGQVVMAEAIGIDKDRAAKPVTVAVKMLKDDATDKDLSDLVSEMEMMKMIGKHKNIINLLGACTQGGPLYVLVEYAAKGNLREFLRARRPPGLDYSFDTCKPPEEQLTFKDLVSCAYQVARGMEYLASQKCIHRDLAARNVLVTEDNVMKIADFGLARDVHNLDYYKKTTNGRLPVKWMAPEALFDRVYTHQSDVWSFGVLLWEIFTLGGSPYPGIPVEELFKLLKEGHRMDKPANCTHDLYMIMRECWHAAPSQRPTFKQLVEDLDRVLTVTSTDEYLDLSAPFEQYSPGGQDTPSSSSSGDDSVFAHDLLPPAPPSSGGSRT

[14] = molecular target: Fibroblast growth factor receptor 4 (Homo sapiens) (UniProt P22455); settings: Compound concentration 100.0 nM
[15] = molecular target: Tyrosine-protein kinase HCK (Homo sapiens) (UniProt P08631); settings: Compound concentration 100.0 nM
Tyrosine-protein kinase HCK (Homo sapiens), sequence (P08631 2-526 limits assumed): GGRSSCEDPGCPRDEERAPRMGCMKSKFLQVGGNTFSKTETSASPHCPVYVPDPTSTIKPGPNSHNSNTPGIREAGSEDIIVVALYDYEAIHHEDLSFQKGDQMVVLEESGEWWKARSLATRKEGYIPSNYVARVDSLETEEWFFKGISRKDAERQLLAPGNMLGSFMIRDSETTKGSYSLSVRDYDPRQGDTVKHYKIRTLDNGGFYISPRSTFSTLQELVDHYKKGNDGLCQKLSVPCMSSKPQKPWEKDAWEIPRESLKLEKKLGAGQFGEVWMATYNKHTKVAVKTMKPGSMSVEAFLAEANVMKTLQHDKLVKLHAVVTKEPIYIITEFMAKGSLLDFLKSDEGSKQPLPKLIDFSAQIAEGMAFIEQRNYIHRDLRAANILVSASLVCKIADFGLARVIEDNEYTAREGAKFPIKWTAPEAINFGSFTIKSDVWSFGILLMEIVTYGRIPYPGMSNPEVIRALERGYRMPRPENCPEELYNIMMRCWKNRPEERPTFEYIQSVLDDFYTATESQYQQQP

[16] = molecular target: Mitogen-activated protein kinase 10 (Homo sapiens) (UniProt P53779); settings: Compound concentration 100.0 nM
[17] = molecular target: Mitogen-activated protein kinase kinase kinase kinase 3 (Homo sapiens) (UniProt Q8IVH8); settings: Compound concentration 100.0 nM
[18] = tested on: Hepatocyte growth factor receptor (Homo sapiens), P08581 [Y1235D]; settings: Compound concentration 100.0 nM
[19] = molecular target: Myosin light chain kinase (Homo sapiens) (UniProt Q32MK0); settings: Compound concentration 100.0 nM
[20] = molecular target: Mitogen-activated protein kinase kinase kinase 10 (Homo sapiens) (UniProt Q02779); settings: Compound concentration 100.0 nM
[21] = molecular target: Myosin light chain kinase family member 4 (Homo sapiens) (UniProt Q86YV6); settings: Compound concentration 100.0 nM
[22] = molecular target: Serine/threonine-protein kinase Nek10 (Homo sapiens) (UniProt Q6ZWH5); settings: Compound concentration 100.0 nM
Serine/threonine-protein kinase Nek10 (Homo sapiens), sequence (Q6ZWH5 whole entry): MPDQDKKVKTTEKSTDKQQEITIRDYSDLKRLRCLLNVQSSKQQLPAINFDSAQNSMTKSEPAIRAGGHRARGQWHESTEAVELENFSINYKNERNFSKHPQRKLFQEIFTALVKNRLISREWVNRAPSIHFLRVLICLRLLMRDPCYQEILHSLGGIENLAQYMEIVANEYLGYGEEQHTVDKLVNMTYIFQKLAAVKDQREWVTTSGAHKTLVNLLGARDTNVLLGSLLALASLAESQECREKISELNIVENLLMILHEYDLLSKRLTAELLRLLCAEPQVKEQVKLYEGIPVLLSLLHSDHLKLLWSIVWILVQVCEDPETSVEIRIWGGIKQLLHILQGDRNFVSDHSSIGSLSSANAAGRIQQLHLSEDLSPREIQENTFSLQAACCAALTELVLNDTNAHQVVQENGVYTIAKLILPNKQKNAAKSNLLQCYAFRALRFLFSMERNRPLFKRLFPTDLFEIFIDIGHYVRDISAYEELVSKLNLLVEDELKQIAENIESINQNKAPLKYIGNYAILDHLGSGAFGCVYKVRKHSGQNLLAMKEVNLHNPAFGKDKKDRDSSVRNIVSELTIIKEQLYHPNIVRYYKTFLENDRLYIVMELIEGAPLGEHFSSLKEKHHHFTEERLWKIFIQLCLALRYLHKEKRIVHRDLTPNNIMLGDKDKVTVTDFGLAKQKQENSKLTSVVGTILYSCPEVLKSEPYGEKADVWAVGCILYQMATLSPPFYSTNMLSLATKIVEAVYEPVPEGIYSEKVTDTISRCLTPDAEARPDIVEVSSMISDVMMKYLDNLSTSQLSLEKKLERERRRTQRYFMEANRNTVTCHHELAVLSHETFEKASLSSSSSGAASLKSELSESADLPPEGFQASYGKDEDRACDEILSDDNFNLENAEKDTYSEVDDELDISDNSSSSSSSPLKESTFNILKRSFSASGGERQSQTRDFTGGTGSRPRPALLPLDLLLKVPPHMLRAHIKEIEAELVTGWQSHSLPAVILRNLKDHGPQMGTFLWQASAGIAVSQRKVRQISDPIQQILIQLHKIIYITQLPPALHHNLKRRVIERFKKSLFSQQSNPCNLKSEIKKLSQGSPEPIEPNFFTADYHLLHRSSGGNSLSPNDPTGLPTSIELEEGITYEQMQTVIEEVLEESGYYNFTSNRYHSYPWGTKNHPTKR

[23] = molecular target: Serine/threonine-protein kinase Nek4 (Homo sapiens) (UniProt P51957); settings: Compound concentration 100.0 nM
[24] = molecular target: Mitogen-activated protein kinase 11 (Homo sapiens) (UniProt Q15759); settings: Compound concentration 100.0 nM
[25] = molecular target: T1, Mitogen-activated protein kinase 13 (Homo sapiens) (UniProt O15264); settings: Compound concentration 100.0 nM
T1 sequence (whole entry): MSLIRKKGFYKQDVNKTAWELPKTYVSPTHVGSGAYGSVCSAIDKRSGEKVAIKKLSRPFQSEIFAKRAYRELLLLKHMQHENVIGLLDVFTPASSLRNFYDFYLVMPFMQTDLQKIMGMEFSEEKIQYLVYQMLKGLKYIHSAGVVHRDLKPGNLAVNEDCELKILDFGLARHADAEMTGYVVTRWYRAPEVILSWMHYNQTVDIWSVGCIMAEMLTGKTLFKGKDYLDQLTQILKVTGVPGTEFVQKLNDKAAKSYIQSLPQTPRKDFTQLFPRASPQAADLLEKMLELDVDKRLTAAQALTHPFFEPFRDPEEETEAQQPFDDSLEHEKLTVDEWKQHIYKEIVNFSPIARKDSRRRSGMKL

[26] = molecular target: 3-phosphoinositide-dependent protein kinase 1 (Homo sapiens) (UniProt O15530); settings: Compound concentration 100.0 nM
[27] = tested on: Phosphatidylinositol 4,5-bisphosphate 3-kinase catalytic subunit alpha isoform (Homo sapiens), P42336 [E542K]; settings: Compound concentration 100.0 nM
Phosphatidylinositol 4,5-bisphosphate 3-kinase catalytic subunit alpha isoform (Homo sapiens), P42336 [E542K], sequence (P42336 whole entry E542K, canonical isoform): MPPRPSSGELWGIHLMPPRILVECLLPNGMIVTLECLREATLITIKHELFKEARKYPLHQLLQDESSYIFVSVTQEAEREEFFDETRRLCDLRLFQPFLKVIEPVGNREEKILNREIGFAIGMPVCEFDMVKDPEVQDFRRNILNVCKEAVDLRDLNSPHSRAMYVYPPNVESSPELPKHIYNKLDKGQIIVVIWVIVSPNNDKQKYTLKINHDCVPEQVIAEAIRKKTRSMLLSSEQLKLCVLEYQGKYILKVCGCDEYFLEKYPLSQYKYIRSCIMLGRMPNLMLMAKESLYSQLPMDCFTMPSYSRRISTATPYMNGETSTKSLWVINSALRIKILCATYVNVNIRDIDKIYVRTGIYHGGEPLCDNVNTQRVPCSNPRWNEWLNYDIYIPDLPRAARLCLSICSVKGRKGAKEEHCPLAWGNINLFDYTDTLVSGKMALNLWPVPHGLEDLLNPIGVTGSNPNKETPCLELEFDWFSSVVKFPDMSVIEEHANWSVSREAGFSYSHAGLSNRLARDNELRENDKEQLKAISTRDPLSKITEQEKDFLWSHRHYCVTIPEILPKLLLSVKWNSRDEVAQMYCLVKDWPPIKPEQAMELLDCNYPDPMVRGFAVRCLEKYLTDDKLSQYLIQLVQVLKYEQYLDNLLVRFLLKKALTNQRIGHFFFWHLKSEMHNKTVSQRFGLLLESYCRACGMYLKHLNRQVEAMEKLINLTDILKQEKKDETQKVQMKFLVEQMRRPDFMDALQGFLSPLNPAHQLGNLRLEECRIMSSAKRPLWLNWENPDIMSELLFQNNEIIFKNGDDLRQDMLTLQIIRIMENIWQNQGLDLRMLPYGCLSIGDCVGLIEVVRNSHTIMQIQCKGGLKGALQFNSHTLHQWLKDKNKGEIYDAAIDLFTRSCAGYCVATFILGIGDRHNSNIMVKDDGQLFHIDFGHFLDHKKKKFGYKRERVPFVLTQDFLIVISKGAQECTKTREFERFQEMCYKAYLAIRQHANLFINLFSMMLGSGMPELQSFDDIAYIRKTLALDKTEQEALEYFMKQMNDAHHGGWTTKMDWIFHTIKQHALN

[28] = molecular target: Phosphatidylinositol 4,5-bisphosphate 3-kinase catalytic subunit beta isoform (Homo sapiens) (UniProt P42338); settings: Compound concentration 100.0 nM
Phosphatidylinositol 4,5-bisphosphate 3-kinase catalytic subunit beta isoform (Homo sapiens), sequence (P42338 whole entry, looked up, canonical isoform): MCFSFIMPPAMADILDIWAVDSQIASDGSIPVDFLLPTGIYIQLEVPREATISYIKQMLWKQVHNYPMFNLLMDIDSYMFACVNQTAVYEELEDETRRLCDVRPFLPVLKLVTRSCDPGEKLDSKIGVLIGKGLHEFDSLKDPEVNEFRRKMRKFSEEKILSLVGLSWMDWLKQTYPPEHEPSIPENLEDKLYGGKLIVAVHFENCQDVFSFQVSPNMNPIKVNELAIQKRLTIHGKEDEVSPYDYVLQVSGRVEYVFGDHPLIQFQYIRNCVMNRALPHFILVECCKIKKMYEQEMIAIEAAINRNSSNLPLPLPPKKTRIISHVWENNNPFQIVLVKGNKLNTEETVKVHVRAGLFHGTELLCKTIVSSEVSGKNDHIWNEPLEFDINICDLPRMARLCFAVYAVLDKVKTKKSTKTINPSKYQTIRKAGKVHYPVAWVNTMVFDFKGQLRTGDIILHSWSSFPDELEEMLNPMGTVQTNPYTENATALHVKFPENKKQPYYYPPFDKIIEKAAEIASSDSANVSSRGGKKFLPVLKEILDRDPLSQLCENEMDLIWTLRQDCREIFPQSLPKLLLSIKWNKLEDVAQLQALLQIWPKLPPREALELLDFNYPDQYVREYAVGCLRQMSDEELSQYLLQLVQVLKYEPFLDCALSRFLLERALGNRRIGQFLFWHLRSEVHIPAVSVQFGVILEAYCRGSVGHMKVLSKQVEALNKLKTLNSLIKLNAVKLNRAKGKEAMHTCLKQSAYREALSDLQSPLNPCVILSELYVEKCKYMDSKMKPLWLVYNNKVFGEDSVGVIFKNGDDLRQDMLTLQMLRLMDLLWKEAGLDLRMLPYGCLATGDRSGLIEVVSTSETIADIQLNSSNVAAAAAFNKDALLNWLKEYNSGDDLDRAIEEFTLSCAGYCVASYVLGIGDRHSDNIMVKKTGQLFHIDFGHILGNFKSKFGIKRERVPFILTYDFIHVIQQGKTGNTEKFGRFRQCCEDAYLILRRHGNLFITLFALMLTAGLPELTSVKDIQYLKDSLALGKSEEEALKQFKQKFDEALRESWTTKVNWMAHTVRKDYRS

[29] = molecular target: Serine/threonine-protein kinase PLK2 (Homo sapiens) (UniProt Q9NYY3); settings: Compound concentration 100.0 nM
[30] = molecular target: Serine/threonine-protein kinase RIO1 (Homo sapiens) (UniProt Q9BRS2); settings: Compound concentration 100.0 nM
[31] = molecular target: Receptor-interacting serine/threonine-protein kinase 1 (Homo sapiens) (UniProt Q13546); settings: Compound concentration 100.0 nM
[32] = molecular target: Uncharacterized serine/threonine-protein kinase SBK3 (Homo sapiens) (UniProt P0C264); settings: Compound concentration 100.0 nM
[33] = molecular target: TGF-beta receptor type-2 (Homo sapiens) (UniProt P37173); settings: Compound concentration 100.0 nM
[34] = molecular target: NT-3 growth factor receptor (Homo sapiens) (UniProt Q16288); settings: Compound concentration 100.0 nM
[35] = molecular target: Serine/threonine-protein kinase ULK3 (Homo sapiens) (UniProt Q6PHR2); settings: Compound concentration 100.0 nM
[36] = molecular target: Vascular endothelial growth factor receptor 2 (Homo sapiens) (UniProt P35968); settings: Compound concentration 100.0 nM
[37] = molecular target: Serine/threonine-protein kinase WNK1 (Homo sapiens) (UniProt Q9H4A3); settings: Compound concentration 100.0 nM
[38] = molecular target: Serine/threonine-protein kinase WNK2 (Homo sapiens) (UniProt Q9Y3S1); settings: Compound concentration 100.0 nM
[39] = molecular target: Alpha-1A adrenergic receptor (Homo sapiens) (UniProt P35348); settings: Compound concentration 10.0 uM
Alpha-1A adrenergic receptor (Homo sapiens), sequence (P35348 whole entry): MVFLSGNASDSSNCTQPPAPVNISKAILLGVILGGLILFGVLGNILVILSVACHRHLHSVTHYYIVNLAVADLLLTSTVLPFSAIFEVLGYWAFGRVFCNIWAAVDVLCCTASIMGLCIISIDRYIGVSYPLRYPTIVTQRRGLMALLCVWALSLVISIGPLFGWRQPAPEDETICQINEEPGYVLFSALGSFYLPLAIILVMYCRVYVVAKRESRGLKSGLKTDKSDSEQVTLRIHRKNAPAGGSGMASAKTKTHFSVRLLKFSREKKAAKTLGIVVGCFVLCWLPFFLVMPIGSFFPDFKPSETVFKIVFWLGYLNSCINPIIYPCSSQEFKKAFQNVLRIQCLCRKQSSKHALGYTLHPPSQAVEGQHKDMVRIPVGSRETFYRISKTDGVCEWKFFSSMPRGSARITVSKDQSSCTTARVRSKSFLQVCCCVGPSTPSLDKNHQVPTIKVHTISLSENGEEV

[40] = molecular target: Beta-3 adrenergic receptor (Homo sapiens) (UniProt P13945); settings: Compound concentration 10.0 uM

Cc1c[nH]c2nccc(Oc3c(F)cc(Nc4cc(Cl)nc(N)n4)cc3F)c12 [BAY-549]
inactive: residual activity [1] 95% | residual activity [2] 100% | residual activity [3] 85% | residual activity [4] 92% | residual activity [5] 83% | residual activity [6] 87% | residual activity [7] 89% | residual activity [8] 100% | residual activity [9] 56% | residual activity [10] 100% | residual activity [11] 100% | residual activity [12] 96% | residual activity [13] 100% | residual activity [14] 100% | residual activity [15] 100% | residual activity [16] 81% | residual activity [17] 91% | residual activity [18] 88% | residual activity [19] 91% | residual activity [20] 100% | residual activity [21] 100% | residual activity [22] 75% | residual activity [23] 90% | residual activity [24] 97% | residual activity [25] 89% | residual activity [26] 100% | residual activity [27] 85% | residual activity [28] 76% | residual activity [29] 59% | residual activity [30] 100% | residual activity [31] 100% | residual activity [32] 87% | residual activity [33] 100% | residual activity [34] 86% | residual activity [35] 88% | residual activity [36] 81% | residual activity [37] 90% | residual activity [38] 96% | inhibition [39] -7.18% | inhibition [40] 22%

Cn1cc(Cl)c2c(Oc3c(F)cc(Nc4cc(Cl)nc(N)n4)cc3F)ccnc21 [BAY-4900]
inactive: residual activity [1] 95% | residual activity [2] 93% | residual activity [3] 95% | residual activity [4] 100% | residual activity [5] 96% | residual activity [6] 100% | residual activity [7] 98% | residual activity [8] 100% | residual activity [9] 86% | residual activity [10] 100% | residual activity [11] 100% | residual activity [12] 100% | residual activity [13] 99% | residual activity [14] 86% | residual activity [15] 100% | residual activity [16] 80% | residual activity [17] 100% | residual activity [18] 91% | residual activity [19] 94% | residual activity [20] 100% | residual activity [21] 91% | residual activity [22] 66% | residual activity [23] 84% | residual activity [24] 100% | residual activity [25] 95% | residual activity [26] 61% | residual activity [27] 89% | residual activity [28] 82% | residual activity [29] 83% | residual activity [30] 100% | residual activity [31] 100% | residual activity [32] 65% | residual activity [33] 90% | residual activity [34] 76% | residual activity [35] 85% | residual activity [36] 93% | residual activity [37] 98% | residual activity [38] 88% | inhibition [39] -5.31% | inhibition [40] 3.48%

— ChEMBL document CHEMBL4507274 (2021)
